Each structure is given as a SMILES string.

For this assay, the target named is T1, P2X7 receptor (Homo sapiens, UniProt Q99572).
T1 construct: host or cells: SH-SY5Y
T1 sequence (Q99572 1-595): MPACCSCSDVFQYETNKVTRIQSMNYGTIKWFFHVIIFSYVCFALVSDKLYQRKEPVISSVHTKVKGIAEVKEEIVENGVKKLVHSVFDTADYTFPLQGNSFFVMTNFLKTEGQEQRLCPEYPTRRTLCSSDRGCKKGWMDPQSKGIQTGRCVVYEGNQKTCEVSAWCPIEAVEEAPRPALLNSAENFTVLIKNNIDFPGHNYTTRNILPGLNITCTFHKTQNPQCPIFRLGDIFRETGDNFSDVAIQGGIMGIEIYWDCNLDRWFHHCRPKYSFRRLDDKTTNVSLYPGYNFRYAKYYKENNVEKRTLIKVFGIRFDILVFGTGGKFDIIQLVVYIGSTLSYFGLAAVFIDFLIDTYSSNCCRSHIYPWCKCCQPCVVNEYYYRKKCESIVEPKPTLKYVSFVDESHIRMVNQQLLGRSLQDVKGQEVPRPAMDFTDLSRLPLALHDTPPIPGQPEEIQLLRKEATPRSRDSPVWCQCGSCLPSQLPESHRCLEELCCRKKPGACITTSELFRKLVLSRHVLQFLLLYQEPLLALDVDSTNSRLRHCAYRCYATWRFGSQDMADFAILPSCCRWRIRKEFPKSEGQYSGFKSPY
Briefly: High throughput P2X7 calcium mobilization assay (Example 4A). The class given is cell-based. The following applies: SH-SY5Y cells; 50% decrease in fluorescence response of cells exposed to 80 μM BzATP; Table I. As to the method: A. High Throughput Assay of P2X7 Receptors
SH-SY5Y cells, ATCC Number CRL-2266, (American Type Culture Collection, Manassas, Va.) are cultured under DMEM/High medium supplemented with 10% FBS, and 10 mM HEPES (Invitrogen Corp., Carlsbad, Calif.) in 5% CO2 and at 37° C. One day prior to the experiment, cells are plated at a density of 100,000 cells/well in a 96 well black/clear TC plate (Corning® Costar®, Sigma-Aldrich Co., St. Louis, Mo.). At the beginning of the experiment, the culture medium is removed and cells are incubated with 50 μL of 2.3 μM Fluo-4 AM dye (Invitrogen Corp.) in the assay solution (5 mM KCl, 9.6 mM NaH2PO4.H2O, 25 mM HEPES, 280 mM sucrose, 5 mM glucose, and 0.5 mM CaCl2; pH is adjusted to 7.4 with NaOH) for an hour at 37° C. After one hour dye incubation, wells are rinsed once with 50 μL assay solution, and are then incubated for an hour at room temperature with 100 μL assay solution containing the test compound. The final concentration of test compound generally ranges from 1 to 2500 nM; for positive control cells, no test compound is added. After the one hour incubation, plates are transferred to a FLIPR^TETRA instrument (Molecular Devices, Sunnyvale, Calif.) for calcium mobilization analysis.
For determination of antagonist activity, 50 μL, of P2X7 agonist (2′(3)-O-(4-benzoyl-benzoyl)adenosine 5′-triphosephate (BzATP; Sigma-Aldrich) in the assay solution is transferred using the FLIPR into the plate, such that the final agonist concentration is 80 μM (about EC50). In negative control cells, 50 μL of assay solution without agonist is added at this stage. The peak fluorescence signal over a 2 minute period is then measured.
First, the average maximum relative fluorescent unit (RFU) response from the negative control wells (no agonist) is subtracted from the maximum response detected for each of the other experimental wells. Second, average maximum RFU response is calculated for the positive control wells (agonist wells).
(In general: Calcium flux is commonly read through the fluorescence of an indicator in the cells.)
Consider `Cc1ccsc1C(=O)NCC12CC3CC(CC(C3)C1)C2` [Compound 73, N-(1-adamantylmethyl)-3-methylthiophene-2-carboxamide], for which the half-maximal inhibitory concentration (IC50) (usually the concentration that inhibits the measured activity by half) is at most 2 µM.

On to `CSc1ccc(C(=O)NCC23CC4CC(CC(C4)C2)C3)s1` [Compound 75, N-(1-adamantylmethyl)-5-(methylthio)thiophene-2-carboxamide], for which the IC50 was at most 2 µM. The value for `O=C(NCC12CC3CC(CC(C3)C1)C2)c1ccc(Br)s1` [Compound 76, N-(1-adamantylmethyl)-5-bromothiophene-2-carboxamide] was at most 2 µM; that for `CCCc1ccc(C(=O)NCC23CC4CC(CC(C4)C2)C3)s1` [Compound 78, N-(1-adamantylmethyl)-5-propylthiophene-2-carboxamide] was at most 2 µM. Regarding `Cn1nc(C(F)(F)F)cc1-c1ccc(C(=O)NCC23CC4CC(CC(C4)C2)C3)s1` [Compound 80, N-(1-adamantylmethyl)-5-[1-methyl-3-(trifluoromethyl)-1H-pyrazol-5-yl]thiophene-2-carboxamide], the IC50 was at most 2 µM. The value for `Cn1nc(C(F)(F)F)cc1-c1ccc(C(=O)NCCC23CC4CC(CC(C4)C2)C3)s1` [Compound 85, N-[2-(1-adamantyl)ethyl]-5-[1-methyl-3-(trifluoromethyl)-1H-pyrazol-5-yl]thiophene-2-carboxamide] was at most 2 µM.

Take `Cc1csc(C(=O)NCC23CC4CC(CC(C4)C2)C3)c1Cl` [Compound 87, N-(adamantan-1-ylmethyl)-3-chloro-4-methylthiophene-2-carboxamide]: the IC50 is at most 2 µM.

Regarding `Cc1cnc(-n2cc(C(=O)NCC34CC5CC(CC(C5)C3)C4)c(C)n2)nc1Br` [Compound 91, N-(adamantan-1-ylmethyl)-1-(4-bromo-5-methylpyrimidin-2-yl)-3-methyl-1H-pyrazole-4-carboxamide], the IC50 was at most 2 µM. On to `CNc1nc(-n2cc(C(=O)NCC34CC5CC(CC(C5)C3)C4)c(C)n2)ncc1C` [Compound 92, N-(adamantan-1-ylmethyl)-3-methyl-1-[5-methyl-4-(methylamino)pyrimidin-2-yl]-1H-pyrazole-4-carboxamide], for which the concentration for half-maximal inhibition (IC50) is at most 2 µM.

As for `Cc1cnc(-n2cc(C(=O)NCC34CC5CC(CC(C5)C3)C4)c(C)n2)nc1-c1ccccc1` [Compound 93, N-(adamantan-1-ylmethyl)-3-methyl-1-(5-methyl-4-phenylpyrimidin-2-yl)-1H-pyrazole-4-carboxamide], the IC50 was at most 2 µM. The value for `Cc1cnc(-n2cc(C(=O)NCC34CC5CC(CC(C5)C3)C4)c(C)n2)nc1` [Compound 94, N-(adamantan-1-ylmethyl)-3-methyl-1-(5-methylpyrimidin-2-yl)-1H-pyrazole-4-carboxamide] was at most 2 µM; that for `Cc1cnc(-n2cc(C(=O)NCC34CC5CC(CC(C5)C3)C4)c(C)n2)nc1-c1cccnc1` [Compound 95, N-(adamantan-1-ylmethyl)-3-methyl-1-(5-methyl-4-pyridin-3-ylpyrimidin-2-yl)-1H-pyrazole-4-carboxamide] was at most 2 µM. Consider `Cc1cnc(-n2cc(C(=O)NCC34CC5CC(CC(C5)C3)C4)c(C)n2)nc1C(N)=O` [Compound 96, 2-{4-[(adamantan-1-ylmethyl)carbamoyl]-3-methyl-1H-pyrazol-1-yl}-5-methylpyrimidine-4-carboxamide], for which the IC50 is at most 2 µM. Regarding `Cc1ccc(-n2cc(C(=O)NCC34CC5CC(CC(C5)C3)C4)c(C)n2)nc1` [Compound 97, N-(adamantan-1-ylmethyl)-3-methyl-1-(5-methylpyridin-2-yl)-1H-pyrazole-4-carboxamide], the IC50 is at most 2 µM. For `Cc1nn(-c2ccccn2)cc1C(=O)NCC12CC3CC(CC(C3)C1)C2` [Compound 98], the 50% inhibitory concentration (IC50) was at most 2 µM. As to `Cc1nn(-c2nccc(N)n2)cc1C(=O)NCC12CC3CC(CC(C3)C1)C2` [Compound 99, N-(adamantan-1-ylmethyl)-1-(4-aminopyrimidin-2-yl)-3-methyl-1H-pyrazole-4-carboxamide], the IC50 was at most 2 µM. Then `Cc1cnc(-n2cc(C(=O)NCC34CC5CC(CC(C5)C3)C4)c(C(C)C)n2)nc1N` [Compound 100, N-(adamantan-1-ylmethyl)-1-(4-amino-5-methylpyrimidin-2-yl)-3-isopropyl-1H-pyrazole-4-carboxamide], with at most 2 µM; and `Cc1nn(-c2ccncc2)cc1C(=O)NCC12CC3CC(CC(C3)C1)C2` [Compound 101, N-(adamantan-1-ylmethyl)-3-methyl-1-pyridin-4-yl-1H-pyrazole-4-carboxamide], with at most 2 µM; and `CCc1cnc(-n2cc(C(=O)NCC34CC5CC(CC(C5)C3)C4)c(C)n2)nc1` [Compound 102, N-(adamantan-1-ylmethyl)-1-(5-ethylpyrimidin-2-yl)-3-methyl-1H-pyrazole-4-carboxamide], with at most 2 µM. In the case of `C=Cc1nc(-n2cc(C(=O)NCC34CC5CC(CC(C5)C3)C4)c(C)n2)ncc1C` [Compound 103, N-(adamantan-1-ylmethyl)-3-methyl-1-(5-methyl-4-vinylpyrimidin-2-yl)-1H-pyrazole-4-carboxamide], the IC50 was at most 2 µM. Then `Cc1cnc(-n2cc(C(=O)NCC34CC5CC(CC(C5)C3)C4)c(C)n2)nc1C(=O)N1CCCC1` [Compound 104, N-(adamantan-1 ylmethyl)-3-methyl-1-[5-methyl-4-(pyrrolidin-1-ylcarbonyl)pyrimidin-2-yl]-1H-pyrazole-4-carboxamide], with at most 2 µM; and `Cc1cnc(-n2cc(C(=O)NCC34CC5CC(CC(C5)C3)C4)c(C)n2)nc1C(=O)N1CCC[C@@H](N)C1` [Compound 105, N-(adamantan-1-ylmethyl)-1-(4-{[(3R)-3-aminopiperidin-1-yl]carbonyl}-5-methylpyrimidin-2-yl)-3-methyl-1H-pyrazole-4-carboxamide], with at most 2 µM; and `CCc1nc(-n2cc(C(=O)NCC34CC5CC(CC(C5)C3)C4)c(C)n2)ncc1C` [Compound 106, N-(adamantan-1-ylmethyl)-1-(4-ethyl-5-methylpyrimidin-2-yl)-3-methyl-1H-pyrazole-4-carboxamide], with at most 2 µM. `CCNC(=O)c1nc(-n2cc(C(=O)NCC34CC5CC(CC(C5)C3)C4)c(C)n2)ncc1C` [Compound 107, 2-{4-[(adamantan-1-ylmethyl)carbamoyl]-3-methyl-1H-pyrazol-1-yl]-N-ethyl-5-methylpyrimidine-4-carboxamide]: the half-inhibitory concentration (IC50) is at most 2 µM. The value for `CCCNC(=O)c1nc(-n2cc(C(=O)NCC34CC5CC(CC(C5)C3)C4)c(C)n2)ncc1C` [Compound 108, 2-{4-[(adamantan-1-ylmethyl)carbamoyl]-3-methyl-1H-pyrazol-1-yl}-5-methyl-N-propylpyrimidine-4-carboxamide] was at most 2 µM; that for `Cc1cnc(-n2cc(C(=O)NCC(CC(C)C)c3ccc(Cl)cc3)c(C)n2)nc1N` (centres unmarked) [Compound 109, 1-(4-amino-5-methylpyrimidin-2-yl)-N-[2-(4-chlorophenyl)-4-methylpentyl]-3-methyl-1H-pyrazole-4-carboxamide] was at most 2 µM. On to `Cc1nn(-c2ncc(F)c(N)n2)cc1C(=O)NCC12CC3CC(CC(C3)C1)C2` [Compound 110, N-(adamantan-1-ylmethyl)-1-(4-amino-5-fluoropyrimidin-2-yl)-3-methyl-1H-pyrazole-4-carboxamide], for which the half-inhibitory concentration (IC50) was at most 2 µM. Regarding `Cc1nn(-c2nccc(C(F)(F)F)n2)cc1C(=O)NCC12CC3CC(CC(C3)C1)C2` [Compound 111, N-(adamantan-1-ylmethyl)-3-methyl-1-[4-(trifluoromethyl)pyrimidin-2-yl]-1H-pyrazole-4-carboxamide], the IC50 is at most 2 µM. Take `Cc1nn(-c2ncc(F)cn2)cc1C(=O)NCC12CC3CC(CC(C3)C1)C2` [Compound 112, N-(adamantan-1-ylmethyl)-1-(5-fluoropyrimidin-2-yl)-3-methyl-1H-pyrazole-4-carboxamide]: the 50% inhibitory concentration (IC50) is at most 2 µM.

(Values after patent publication US9133204B2, “5-membered heterocyclic amides and related compounds” (H. Lundbeck A/S, priority 2007, dated 2015).)
